The subject of data set [1] is picrotoxin-induced lethality. Nature of the data set: Anti-picrotoxin effect (anti-lethal), oral. The class given is in vivo, male dd-mice. The conditions noted are these: Mus musculus, 0.5 h, read-out: Anti-picrotoxin-lethal effect, ED50. How it is done: 1. Anti-picrotoxin Effect
Groups of 7-14 male dd-mice were used. Picrotoxin (5 mg/kg) was administered subcutaneously 60 minutes after the oral administration of test compound, and the 50% anti-lethal dose (ED50) was calculated from the servival rate within 30 minutes.

Data set [2] concerns bicuculline-induced tonic convulsion. Nature of the data set: Anti-bicuculline effect (anti-tonic convulsion), oral. The format is in vivo. The conditions noted are these: Mus musculus, 5 min; bicuculline 0.6 mg/kg i.v. 60 min after oral test compound; protection of 50% against tonic convulsion within 5 min; male dd-mice; read-out: Anti-bicuculline-convulsive effect, ED50. Here is the method:
2. Anti-bicuculline Effect
Groups of 4-14 male dd-mice were used. Bicuculline (0.6 mg/kg) was administered intravenously 60 minutes after the oral administration of test compound, and the ED50, the dose required to protect 50% of the animals against tonic convulsion within 5 minutes was determined.

The conditions of data set [3]: administered peripherally; cited from earlier work.

Structures are written as SMILES.

This is an account of results in US4578397A, “Indeno(1,2-b)pyrrole derivatives” (Yoshitomi Pharmaceutical Industries, Ltd., priority 1982, dated 1986).

As for `O=C1CC2Cc3c(Cl)cccc3C2N1` (centres unmarked) [A, 5-chloro-1,2,3,3a,4,8b-hexahydro-indeno[1,2-b]pyrrol-2-one], the figures for the ED50 in data set [1] and in data set [2] were 18 mg/kg and 75 mg/kg, respectively.

With `O=C1CC2Cc3ccc(F)cc3C2N1` (centres unmarked) [D, 7-Fluoro-1,2,3,3a,4,8b-hexahydro-indeno[1,2-b]pyrrol-2-one], the 50% effective dose (ED50) amounted to 48 mg/kg in data set [1] and 56 mg/kg in data set [2].

Consider `CN1C(=O)CC2Cc3c(Cl)cccc3C21` (centres unmarked) [B, 5-chloro-1-methyl-1,2,3,3a,4,8b-hexahydro-indeno[1,2-a]pyrrol-2-one], for which the 50% effective dose (ED50) turned out to be 36 mg/kg in data set [1] and 68 mg/kg in data set [2].

For `O=C1CC2Cc3ccccc3C2N1` (centres unmarked) [Compound E, 1,2,3,3a,4,8bHexahydro-indeno[1,2b]pyrrol2-one, reference compound], the ED50 in data set [1] and in data set [2] was > 100 mg/kg in each case.

In the case of `Fc1ccc2c(c1)CC1CC(=S)NC21` (centres unmarked) [C, 6-Fluoro-1,2,3,3a,4,8b-hexahydro-indeno[1,2-b]pyrrol-2-thione], the ED50 in data set [1] came to 45 mg/kg; in data set [2] it was 70 mg/kg.

Regarding `NCCCC(=O)O` [GABA, gamma-aminobutyric acid], in data set [3], the “transmission through the blood-brain barrier” value is listed as “hard to transmit through the blood-brain barrier”.
